The values that follow come from ChEMBL document CHEMBL3792317, “Novel tetrazoloquinoline-rhodanine conjugates: Highly efficient synthesis and biological evaluation” (Bioorg Med Chem Lett, 2016).

Molecules are shown by their SMILES. ≈ marks a conversion by molar mass, not a printed value. Calls of active or inactive are those of the source. No cut-off for these calls is given here.

Data set [1] deals with Mycobacterium tuberculosis. As to the kind of experiment: Antitubercular activity against Mycobacterium tuberculosis H37Ra ATCC 25177 incubated for 40 mins by XTT Reduction Menadione Assay. Conditions: H37Ra ATCC 25177, 40 min. It is filed as functional. On the technique in general: Tetrazolium dyes change colour on reduction, which living cells bring about.
The nature of data set [2]: Antitubercular activity against Mycobacterium bovis BCG ATCC 35743 incubated for 40 mins by XTT Reduction Menadione Assay. Type of data set: functional, Mycobacterium bovis BCG str. ATCC 35743. Conditions: Mycobacterium tuberculosis variant bovis BCG, ATCC 35743, 40 min.
The test system of data set [3] is Candida albicans. As to the kind of experiment: Antifungal activity against Candida albicans NCIM 3471 after 48 hrs by agar cup plate method. Conditions: NCIM 3471, 48 h. Type of data set: functional.
In data set [4] the test system is Fusarium oxysporum. As to the kind of experiment: Antifungal activity against Fusarium oxysporum NCIM 1332 after 48 hrs by agar cup plate method. Type of data set: functional. Conditions: NCIM 1332, 48 h.
The test system of data set [5] is Aspergillus flavus. As to the kind of experiment: Antifungal activity against Aspergillus flavus NCIM 539 after 48 hrs by agar cup plate method. Type of data set: functional. Conditions: NCIM 539, 48 h.
For data set [6], the system named is Aspergillus niger. As to the kind of experiment: Antifungal activity against Aspergillus niger NCIM 1196 after 48 hrs by agar cup plate method. It is filed as functional. The settings on record: NCIM 1196, 48 h.
The subject of data set [7] is Cryptococcus neoformans. As to the kind of experiment: Antifungal activity against Cryptococcus neoformans NCIM 576 up to 200 ug/ml after 48 hrs by agar cup plate method. It is filed as functional, organism-based.
For data set [8], the system named is Mycobacterium tuberculosis. As to the kind of experiment: Antitubercular activity against Mycobacterium tuberculosis H37Ra ATCC 25177 at 30 ug/ml incubated for 40 mins by XTT Reduction Menadione Assay. It is filed as functional. Conditions: H37Ra ATCC 25177, 40 min, read-out: GI.
For data set [9], the system named is Mycobacterium tuberculosis. As to the kind of experiment: Antitubercular activity against Mycobacterium tuberculosis H37Ra ATCC 25177 at 10 ug/ml incubated for 40 mins by XTT Reduction Menadione Assay. It is filed as functional. The settings on record: H37Ra ATCC 25177, 40 min, read-out: GI.
The test system of data set [10] is Mycobacterium tuberculosis. As to the kind of experiment: Antitubercular activity against Mycobacterium tuberculosis H37Ra ATCC 25177 at 3 ug/ml incubated for 40 mins by XTT Reduction Menadione Assay. Type of data set: functional. The settings on record: H37Ra ATCC 25177, 40 min, read-out: GI.
Data set [11] deals with Mycobacterium bovis BCG str. ATCC 35743. The data set is described as follows: Antitubercular activity against dormant Mycobacterium bovis BCG ATCC 35743 at 30 ug/ml incubated for 40 mins by XTT Reduction Menadione Assay. It is filed as functional.
For data set [12] the test system is unchanged. As to the kind of experiment: Antitubercular activity against dormant Mycobacterium bovis BCG ATCC 35743 at 10 ug/ml incubated for 40 mins by XTT Reduction Menadione Assay. It is filed as functional.
For data set [13] the test system is unchanged. The data set is described as follows: Antitubercular activity against dormant Mycobacterium bovis BCG ATCC 35743 at 3 ug/ml incubated for 40 mins by XTT Reduction Menadione Assay. It is filed as functional.
The test system of data set [14] is Escherichia coli. As to the kind of experiment: Antibacterial activity against Escherichia coli after 18 hrs by broth dilution method. Type of data set: functional. A general note: In broth dilution the organism is exposed to a series of concentrations in liquid medium.
For data set [15], the system named is Pseudomonas fluorescens. The data set is described as follows: Antibacterial activity against Pseudomonas fluorescens after 18 hrs by broth dilution method. It is filed as functional.
The subject of data set [16] is Staphylococcus aureus. The data set is described as follows: Antibacterial activity against Staphylococcus aureus after 18 hrs by broth dilution method. Type of data set: functional.
In data set [17] the test system is Bacillus subtilis. As to the kind of experiment: Antibacterial activity against Bacillus subtilis after 18 hrs by broth dilution method. It is filed as functional.
Data set [18] has as its system Mycobacterium tuberculosis. The data set is described as follows: Antitubercular activity against dormant Mycobacterium tuberculosis H37Ra ATCC 25177 incubated for 40 mins by XTT Reduction Menadione Assay. It is filed as functional. Conditions: H37Ra ATCC 25177, 40 min.
The test system of data set [19] is Mycobacterium tuberculosis. The data set is described as follows: Antitubercular activity against active Mycobacterium tuberculosis H37Ra ATCC 25177 incubated for 40 mins by XTT Reduction Menadione Assay. It is filed as functional. Conditions: H37Ra ATCC 25177, 40 min.
For data set [20], the system named is Mycobacterium bovis BCG str. ATCC 35743. As to the kind of experiment: Antitubercular activity against dormant Mycobacterium bovis BCG ATCC 35743 incubated for 40 mins by XTT Reduction Menadione Assay. Type of data set: functional.
Data set [21] shares this test system. As to the kind of experiment: Antitubercular activity against active Mycobacterium bovis BCG ATCC 35743 incubated for 40 mins by XTT Reduction Menadione Assay. It is filed as functional.
Data set [22] can be described thus: (§1) Cytotoxicity against human HeLa cells after 48 hrs by MTT assay. Type of data set: cell-based. Conditions: HeLa cells.
A short description of data set [23]: Cytotoxicity against human PANC1 cells after 48 hrs by MTT assay. The settings on record: for GI50 at 48 h: PANC1 cells. Type of data set: cell-based, PANC-1.
A short description of data set [24]: (§2) Cytotoxicity against human A549 cells after 48 hrs by MTT assay. Type of data set: cell-based. The settings on record: A549 cells.
Data set [25] in a line: Cytotoxicity against human THP1 cells after 48 hrs by MTT assay. The settings on record: for GI50 at 48 h: THP1 cells. It is filed as cell-based, THP-1.
Data set [26] in a line: Selectivity index, ratio of GI50 for human HeLa cells to MIC for Mycobacterium tuberculosis H37Ra ATCC 25177. It is filed as toxicity, cell-based. The settings on record: read-out: Selectivity Index.
Data set [27] is described as follows: Selectivity index, ratio of GI50 for human HeLa cells to MIC for Mycobacterium bovis BCG ATCC 35743. It is filed as toxicity, cell-based. Conditions: read-out: Selectivity Index.
The nature of data set [28]: Selectivity index, ratio of GI50 for human PANC1 cells to MIC for Mycobacterium tuberculosis H37Ra ATCC 25177. Type of data set: toxicity, cell-based, PANC-1. The settings on record: read-out: Selectivity Index.
Data set [29] is described as follows: Selectivity index, ratio of GI50 for human PANC1 cells to MIC for Mycobacterium bovis BCG ATCC 35743. Type of data set: toxicity, cell-based, PANC-1. Conditions: read-out: Selectivity Index.
Data set [30] in a line: Selectivity index, ratio of GI50 for human A549 cells to MIC for Mycobacterium tuberculosis H37Ra ATCC 25177. It is filed as toxicity, cell-based. Conditions: read-out: Selectivity Index.
The nature of data set [31]: Selectivity index, ratio of GI50 for human A549 cells to MIC for Mycobacterium bovis BCG ATCC 35743. It is filed as toxicity, cell-based. Conditions: read-out: Selectivity Index.
The nature of data set [32]: Selectivity index, ratio of GI50 for human THP1 cells to MIC for Mycobacterium tuberculosis H37Ra ATCC 25177. Type of data set: toxicity, cell-based, THP-1. Conditions: read-out: Selectivity Index.
Data set [33] is described as follows: Selectivity index, ratio of GI50 for human THP1 cells to MIC for Mycobacterium bovis BCG ATCC 35743. It is filed as toxicity, cell-based, THP-1. The settings on record: read-out: Selectivity Index.
The test system of data set [34] is Cryptococcus neoformans. The data set is described as follows: Antifungal activity against Cryptococcus neoformans NCIM 576 after 48 hrs by agar cup plate method. Conditions: NCIM 576, 48 h. Type of data set: functional.
Data set [35] deals with HeLa. The description is as §1. Type of data set: cell-based. Conditions: hela, 48 h.
The test system of data set [36] is A549. The description is as §2. It is filed as cell-based. Conditions: a549, 48 h.

The MIC is the lowest concentration that inhibits growth of the organism. By IC90 is commonly meant the point of the concentration-response curve where the effect stands at 90%. Higher therefore signals a need for much substance. One may read the GI50 as the concentration that inhibits growth by half. Lower therefore signals more potent growth inhibition.

In the case of `COc1ccc2cc(/C=C3\SC(=S)NC3=O)c3nnnn3c2c1`, the minimum inhibitory concentration (MIC) is above 250 µg/mL in data set [1]; above 250 µg/mL in data set [2]; 150 µg/mL (≈ 437 µM) in [3]; 100 µg/mL (≈ 291 µM) in data set [4]; 100 µg/mL (≈ 291 µM) in data set [5]; 25 µg/mL (≈ 72.8 µM) in data set [6]. The MIC in [14] was found to be 102 µg/mL (≈ 298 µM); in [15], 157 µg/mL (≈ 457 µM); in data set [16], 247 µg/mL (≈ 721 µM); in [17], 246 µg/mL (≈ 716 µM). Moreover, the MIC result in data set [7] is “inactive”. Moreover, the inhibition of growth at 30 µg/mL in data set [8] amounted to 14.1%. In addition, the inhibition of growth at 10 µg/mL in data set [9] stood at 15.6%. The inhibition of growth at 3 µg/mL in data set [10] was determined as 1.97%. The growth inhibition (GI) was 3.63% in [11], -1.87% in data set [12] and -3.47% in [13].
Consider `CO[C@H]1/C=C/O[C@@]2(C)Oc3c(C)c(O)c4c(O)c(c(/C=N/N5CCN(C)CC5)c(O)c4c3C2=O)NC(=O)/C(C)=C\C=C\[C@H](C)[C@H](O)[C@@H](C)[C@@H](O)[C@@H](C)[C@H](OC(C)=O)[C@@H]1C` [RIFAMPIN], for which the results for the MIC in data set [1] and in [2] were 0.72 µg/mL (≈ 0.875 µM) and 0.89 µg/mL (≈ 1.08 µM), respectively. Moreover, the IC90 was determined as 0.72 µg/mL (≈ 0.875 µM) in data set [18], 0.05 µg/mL (≈ 0.0608 µM) in data set [19], 0.89 µg/mL (≈ 1.08 µM) in data set [20] and 0.061 µg/mL (≈ 0.0741 µM) in data set [21]. Moreover, the concentration for 50% growth inhibition (GI50) at 48 h in data set [22], in data set [23], in data set [24] and in [25] was above 100 µg/mL in each case. Besides, the selectivity ratio in data set [26] is above 139; in data set [27], above 112; in data set [28] it was above 139; in [29], above 112; in data set [30] it was above 139; in data set [31] it was above 112. Further, the selectivity ratio in [32] was above 139; in data set [33] it was above 112.
With `Cc1ccc2cc(/C=C3\SC(=S)NC3=O)c3nnnn3c2c1`, the MIC in data set [1] was determined as 4.5 µg/mL (≈ 13.7 µM); in data set [2], 2.01 µg/mL (≈ 6.14 µM); in data set [3], 150 µg/mL (≈ 458 µM); in [4] it was 150 µg/mL (≈ 458 µM); in [5], 125 µg/mL (≈ 382 µM); in data set [6], 100 µg/mL (≈ 305 µM). For the same compound, the minimal inhibitory concentration (MIC) came to 100 µg/mL (≈ 305 µM) in [34]; 208 µg/mL (≈ 636 µM) in data set [14]; 211 µg/mL (≈ 643 µM) in [15]; 205 µg/mL (≈ 626 µM) in data set [16]; 188 µg/mL (≈ 574 µM) in data set [17]. The inhibition of growth at 30 µg/mL in data set [8] was determined as 98%. The inhibition of growth at 10 µg/mL in data set [9] was 99.7%. Besides, the inhibition of growth at 3 µg/mL in data set [10] was 82.9%. Besides, the growth inhibition (GI) in data set [11] is 97.8%; in data set [12] it was 100%; in data set [13], 100%. For the same compound, the IC90 in data set [18] turned out to be 4.5 µg/mL (≈ 13.7 µM); in data set [19], 5.5 µg/mL (≈ 16.8 µM); in data set [20], 2.01 µg/mL (≈ 6.14 µM); in data set [21] it was 2.25 µg/mL (≈ 6.87 µM). Also, the concentration for 50% growth inhibition (GI50) at 48 h in data set [22], in data set [23], in data set [24] and in data set [25] was above 100 µg/mL in each case. In addition, the GI90 is above 100 µg/mL in data set [35]; above 100 µg/mL in data set [23] (panc-1, 48 h); above 100 µg/mL in [36]; above 100 µg/mL in data set [25] (thp-1, 48 h). Further, the selectivity ratio came out at 22.2 in [26]; 49.8 in [27]; 22.2 in data set [28]; 49.8 in [29]; 22.2 in [30]; 49.8 in data set [31]. Besides, the selectivity ratio in [32] stood at 22.2; in [33] it was 49.8.
